Test results reported in the NIST ThermoML archive (doi:10.1016/j.jct.2019.01.025).
± gives the expanded uncertainty stated by the source.

Conditions: 101.33 kPa, Liquid, Vibrating tube method

| SMILES | mass density (293.15 K) | mass density (298.15 K) | mass density (303.15 K) | mass density (308.15 K) | mass density (313.15 K) | mass density (318.15 K) | mass density (323.15 K) |
| --- | --- | --- | --- | --- | --- | --- | --- |
| CC(C)O [propan-2-ol] | 785.1 ± 4 kg/m3 | 780.91 ± 4 kg/m3 | 776.57 ± 4 kg/m3 | 772.24 ± 4 kg/m3 | 767.82 ± 4 kg/m3 | 763.19 ± 4 kg/m3 | 758.55 ± 4 kg/m3 |
| CC(C)(C)O [2-methylpropan-2-ol] | – | 780.61 ± 4 kg/m3 | 775.42 ± 4 kg/m3 | 770.21 ± 4 kg/m3 | 764.92 ± 4 kg/m3 | 759.42 ± 4 kg/m3 | 753.95 ± 4 kg/m3 |
| CCO [ethanol] | 789.4 ± 4 kg/m3 | 785.13 ± 4 kg/m3 | 780.75 ± 4 kg/m3 | 776.41 ± 4 kg/m3 | 772.04 ± 4 kg/m3 | 767.52 ± 4 kg/m3 | 763.04 ± 4 kg/m3 |
| CCCCO [butan-1-ol] | 809.77 ± 4 kg/m3 | 805.92 ± 4 kg/m3 | 802 ± 4 kg/m3 | 798.14 ± 4 kg/m3 | 794.24 ± 4 kg/m3 | 790.2 ± 4 kg/m3 | 786.21 ± 4 kg/m3 |

The next lines start with the values.

| mass density (293.15 K) | mass density (298.15 K) | mass density (303.15 K) | mass density (308.15 K) | mass density (313.15 K) | mass density (318.15 K) | mass density (323.15 K) | SMILES |
| --- | --- | --- | --- | --- | --- | --- | --- |
| 803.77 ± 4 kg/m3 | 799.69 ± 4 kg/m3 | 795.58 ± 4 kg/m3 | 791.52 ± 4 kg/m3 | 787.42 ± 4 kg/m3 | 783.17 ± 4 kg/m3 | 778.96 ± 4 kg/m3 | CCCO [propan-1-ol] |
| 1016.47 ± 4 kg/m3 | 1012.53 ± 4 kg/m3 | 1008.47 ± 4 kg/m3 | 1004.49 ± 4 kg/m3 | 1000.5 ± 4 kg/m3 | 996.39 ± 4 kg/m3 | 992.41 ± 4 kg/m3 | NCCO [2-aminoethan-1-ol] |
